From patent US10752626B2, “Iso-citrate dehydrogenase (IDH) inhibitor” (SHANGHAI METON PHARMACEUTICAL CO., LTD, priority 2016, dated 2020)

Assay: in vitro
Settings: microsomes; for % remaining #1 / % remaining #2 / Ln (% remaining) #1 / Ln (% remaining) #2 / Mean Ln(% remaining): 1 μM, pH 7.4; for microsomal CLint at 1 μM: pH 7.4, CLint; for half-life at 1 μM: pH 7.4, T1/2
Experimental: The liver microsomes of mouse, rat, dog, monkey and human were purchased from Corning Inc., and were stored at −60° C. prior to use. The acetonitrile and NADPH were purchased from Honeywell International Inc. (New Jersey, U.S.) and Roche Inc. (Basel, Swiss).
Reactions were initiated by adding NADPH to a final concentration of 1 mM. The final volume of each reaction mixture was 0.2 ml, and all reactions were performed in duplicate. At each set time point (0, 5, 15, 30 and 60 min), a small aliquot (e.g., 20 μl) was transferred from the reaction system into ice-cold internal standard (IS) containing acetonitrile to quench the reaction and to precipitate the protein. After vortex and centrifuge at 3700 rpm for 10 min, the supernatant was injected into LC-MS/MS for analysis.
In vitro microsomal clearance was estimated based on determination of elimination half-life (T1/2) of compounds disappearance from their initial concentrations. Peak area ratios of each compound (test or control) to IS was calculated. Ln (% Control) versus Incubation Time (min) curve was plotted, and the slope of a linear fitting line was calculated. Drug elimination rate constant k (min^−1), T1/2 (min), and in vitro intrinsic clearance CLint (mL·min^−1·mg^−1 proteins) was calculated according to the following equations: k=−slope T1/2=0.693/k CLint=k/Cprotein where Cprotein (mg·mL^−1) is the microsomal protein concentration in the incubation system. Test 3: Metabolic Stability Assay in Mouse Plasma
In this study, the metabolic stability of the compounds was assessed in mouse, rat, dog, monkey and human liver microsome according to the method disclosed in Test 2 of the Biological evaluation section.

CCN1Cc2c(ccnc2N[C@@H](C)c2ccc(Oc3ccc(C)cc3)cc2)C1=O [Compound 16, (S)-2-ethyl-4-(1-(4-(p-tolyloxy)phenyl)ethylamino)-2,3-dihydro-1H-pyrrolo [3,4-c]pyridin-1-one]
% remaining #1 (dog, 0 h): 100% | % remaining #2 (dog, 0 h): 100% | Ln (% remaining) #1 (dog, 0 h): 4.61 | Ln (% remaining) #2 (dog, 0 h): 4.61 | Mean Ln(% remaining) (dog, 0 h): 4.61 | % remaining #1 (dog, 5 min): 105% | % remaining #2 (dog, 5 min): 106% | Ln (% remaining) #1 (dog, 5 min): 4.65 | Ln (% remaining) #2 (dog, 5 min): 4.66 | Mean Ln(% remaining) (dog, 5 min): 4.66 | % remaining #1 (dog, 0.25 h): 94.6% | % remaining #2 (dog, 0.25 h): 85.4% | Ln (% remaining) #1 (dog, 0.25 h): 4.55 | Ln (% remaining) #2 (dog, 0.25 h): 4.45 | Mean Ln(% remaining) (dog, 0.25 h): 4.50 | % remaining #1 (dog, 0.5 h): 76.5% | % remaining #2 (dog, 0.5 h): 76.0% | Ln (% remaining) #1 (dog, 0.5 h): 4.34 | Ln (% remaining) #2 (dog, 0.5 h): 4.33 | Mean Ln(% remaining) (dog, 0.5 h): 4.33 | % remaining #1 (dog, 1 h): 52.8% | % remaining #2 (dog, 1 h): 48.8% | Ln (% remaining) #1 (dog, 1 h): 3.97 | Ln (% remaining) #2 (dog, 1 h): 3.89 | Mean Ln(% remaining) (dog, 1 h): 3.93 | microsomal CLint at 1 μM (dog): 23 µL/min/mg | half-life at 1 μM (dog): 60.3 min | stability in human liver microsome (human): medium stability | % remaining #1 (human, 0 h): 100% | % remaining #2 (human, 0 h): 100% | Ln (% remaining) #1 (human, 0 h): 4.61 | Ln (% remaining) #2 (human, 0 h): 4.61 | Mean Ln(% remaining) (human, 0 h): 4.61 | % remaining #1 (human, 5 min): 87.1% | % remaining #2 (human, 5 min): 90.5% | Ln (% remaining) #1 (human, 5 min): 4.47 | Ln (% remaining) #2 (human, 5 min): 4.51 | Mean Ln(% remaining) (human, 5 min): 4.49 | % remaining #1 (human, 0.25 h): 65.7% | % remaining #2 (human, 0.25 h): 69.0% | Ln (% remaining) #1 (human, 0.25 h): 4.18 | Ln (% remaining) #2 (human, 0.25 h): 4.23 | Mean Ln(% remaining) (human, 0.25 h): 4.21 | % remaining #1 (human, 0.5 h): 51.7% | % remaining #2 (human, 0.5 h): 50.5% | Ln (% remaining) #1 (human, 0.5 h): 3.95 | Ln (% remaining) #2 (human, 0.5 h): 3.92 | Mean Ln(% remaining) (human, 0.5 h): 3.93 | % remaining #1 (human, 1 h): 26.2% | % remaining #2 (human, 1 h): 25.4% | Ln (% remaining) #1 (human, 1 h): 3.27 | Ln (% remaining) #2 (human, 1 h): 3.23 | Mean Ln(% remaining) (human, 1 h): 3.25 | microsomal CLint at 1 μM (human): 43.6 µL/min/mg | half-life at 1 μM (human): 31.8 min | % remaining #1 (monkey, 0 h): 100% | % remaining #2 (monkey, 0 h): 100% | Ln (% remaining) #1 (monkey, 0 h): 4.61 | Ln (% remaining) #2 (monkey, 0 h): 4.61 | Mean Ln(% remaining) (monkey, 0 h): 4.61 | % remaining #1 (monkey, 5 min): 66.1% | % remaining #2 (monkey, 5 min): 72.7% | Ln (% remaining) #1 (monkey, 5 min): 4.19 | Ln (% remaining) #2 (monkey, 5 min): 4.29 | Mean Ln(% remaining) (monkey, 5 min): 4.24 | % remaining #1 (monkey, 0.25 h): 32.5% | % remaining #2 (monkey, 0.25 h): 35.4% | Ln (% remaining) #1 (monkey, 0.25 h): 3.48 | Ln (% remaining) #2 (monkey, 0.25 h): 3.57 | Mean Ln(% remaining) (monkey, 0.25 h): 3.52 | % remaining #1 (monkey, 0.5 h): 12.5% | % remaining #2 (monkey, 0.5 h): 12.2% | Ln (% remaining) #1 (monkey, 0.5 h): 2.53 | Ln (% remaining) #2 (monkey, 0.5 h): 2.51 | Mean Ln(% remaining) (monkey, 0.5 h): 2.52 | % remaining #1 (monkey, 1 h): 2.13% | % remaining #2 (monkey, 1 h): 2.06% | Ln (% remaining) #1 (monkey, 1 h): 0.757 | Ln (% remaining) #2 (monkey, 1 h): 0.725 | Mean Ln(% remaining) (monkey, 1 h): 0.741 | microsomal CLint at 1 μM (monkey): 127 µL/min/mg | half-life at 1 μM (monkey): 10.9 min | % remaining #1 (mouse, 0 h): 100% | % remaining #2 (mouse, 0 h): 100% | Ln (% remaining) #1 (mouse, 0 h): 4.61 | Ln (% remaining) #2 (mouse, 0 h): 4.61 | Mean Ln(% remaining) (mouse, 0 h): 4.61 | % remaining #1 (mouse, 5 min): 88.1% | % remaining #2 (mouse, 5 min): 94.2% | Ln (% remaining) #1 (mouse, 5 min): 4.48 | Ln (% remaining) #2 (mouse, 5 min): 4.55 | Mean Ln(% remaining) (mouse, 5 min): 4.51 | % remaining #1 (mouse, 0.25 h): 72.7% | % remaining #2 (mouse, 0.25 h): 80.8% | Ln (% remaining) #1 (mouse, 0.25 h): 4.29 | Ln (% remaining) #2 (mouse, 0.25 h): 4.39 | Mean Ln(% remaining) (mouse, 0.25 h): 4.34 | % remaining #1 (mouse, 0.5 h): 31.0% | % remaining #2 (mouse, 0.5 h): 43.8% | Ln (% remaining) #1 (mouse, 0.5 h): 3.43 | Ln (% remaining) #2 (mouse, 0.5 h): 3.78 | Mean Ln(% remaining) (mouse, 0.5 h): 3.61 | % remaining #1 (mouse, 1 h): 10.6% | % remaining #2 (mouse, 1 h): 12.0% | Ln (% remaining) #1 (mouse, 1 h): 2.36 | Ln (% remaining) #2 (mouse, 1 h): 2.48 | Mean Ln(% remaining) (mouse, 1 h): 2.42 | microsomal CLint at 1 μM (mouse): 77.4 µL/min/mg | half-life at 1 μM (mouse): 17.9 min | % remaining #1 (rat, 0 h): 100% | % remaining #2 (rat, 0 h): 100% | Ln (% remaining) #1 (rat, 0 h): 4.61 | Ln (% remaining) #2 (rat, 0 h): 4.61 | Mean Ln(% remaining) (rat, 0 h): 4.61 | % remaining #1 (rat, 5 min): 90.0% | % remaining #2 (rat, 5 min): 111% | Ln (% remaining) #1 (rat, 5 min): 4.50 | Ln (% remaining) #2 (rat, 5 min): 4.71 | Mean Ln(% remaining) (rat, 5 min): 4.61 | % remaining #1 (rat, 0.25 h): 59.4% | % remaining #2 (rat, 0.25 h): 92.3% | Ln (% remaining) #1 (rat, 0.25 h): 4.09 | Ln (% remaining) #2 (rat, 0.25 h): 4.53 | Mean Ln(% remaining) (rat, 0.25 h): 4.31 | % remaining #1 (rat, 0.5 h): 35.8% | % remaining #2 (rat, 0.5 h): 62.9% | Ln (% remaining) #1 (rat, 0.5 h): 3.58 | Ln (% remaining) #2 (rat, 0.5 h): 4.14 | Mean Ln(% remaining) (rat, 0.5 h): 3.86 | % remaining #1 (rat, 1 h): 14.0% | % remaining #2 (rat, 1 h): 24.1% | Ln (% remaining) #1 (rat, 1 h): 2.64 | Ln (% remaining) #2 (rat, 1 h): 3.18 | Mean Ln(% remaining) (rat, 1 h): 2.91 | microsomal CLint at 1 μM (rat): 66.5 µL/min/mg | half-life at 1 μM (rat): 20.8 min
